Measurements published in US10328052B2, “D-proline derivatives as SAP depleting agent” (GlaxoSmithKline Intellectual Property Development Limited, priority 2015, dated 2019).
Read-outs that look alike come from different tables or passages of the source. Blank lines part the entries; values can stand above or below the molecule they belong to.

Assays:
SAP = molecular target: T1, SAP (Homo sapiens, UniProt P02743); settings: cited from earlier work
T1 construct: reduces the CSF SAP concentration from 2-30 μg/L to <0.1 μg/L in patients with Alzheimer's disease; host or cells: patients' plasma and cerebrospinal fluid (in vivo)
T1 sequence (P02743 20-223): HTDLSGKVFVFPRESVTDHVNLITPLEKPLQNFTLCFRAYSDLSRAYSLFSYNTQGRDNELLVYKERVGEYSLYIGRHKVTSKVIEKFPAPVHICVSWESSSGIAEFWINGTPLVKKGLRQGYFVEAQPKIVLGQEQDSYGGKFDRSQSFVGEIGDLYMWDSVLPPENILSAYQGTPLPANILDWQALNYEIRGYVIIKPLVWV

[1] = very low and variable; cited from earlier work
circulating SAP = molecular target: T2, circulating SAP (Homo sapiens, UniProt P02743); settings: systemic amyloidosis patients, for as long as the drug was administered; cited from earlier work
T2 construct: host or cells: patients' plasma (in vivo)
T2 sequence (P02743 20-223): as above

CYP3A4 = molecular target: T3, CYP3A4 (Homo sapiens, UniProt P08684); assay: Cytochrome p450 inhibition, bactosomes, fluorogenic substrates 7BQ and DEF; type: in vitro ADME; settings: for IC50: bactosomes
T3 construct: purchased Cypex; host or cells: bactosomes (bacterial membranes)
T3 sequence (P08684 whole entry): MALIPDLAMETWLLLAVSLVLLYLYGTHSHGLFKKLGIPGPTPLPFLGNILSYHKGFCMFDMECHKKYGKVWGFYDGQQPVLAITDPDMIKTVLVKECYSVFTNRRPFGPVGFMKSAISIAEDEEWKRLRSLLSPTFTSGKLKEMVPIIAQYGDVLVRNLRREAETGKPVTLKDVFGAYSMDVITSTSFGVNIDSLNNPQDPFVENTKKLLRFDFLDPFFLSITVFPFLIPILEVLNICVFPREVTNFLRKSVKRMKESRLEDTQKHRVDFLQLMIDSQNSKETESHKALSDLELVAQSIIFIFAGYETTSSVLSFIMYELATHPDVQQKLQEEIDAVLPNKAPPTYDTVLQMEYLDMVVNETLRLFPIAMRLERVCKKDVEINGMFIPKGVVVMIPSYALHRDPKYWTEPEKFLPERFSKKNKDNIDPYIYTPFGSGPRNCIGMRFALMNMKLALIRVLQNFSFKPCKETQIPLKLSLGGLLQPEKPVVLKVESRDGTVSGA
Procedure: The assay was designed to evaluate inhibition on cytochrome P450 (CYP) 3A4, 2C9, 2C19, 1A2 and 2D6 enzymes from bactosomes source using fluorogenic substrates. Compound (compound of Formula (I) or Comparator Compound) was dissolved in methanol at 1.65 mM. Daughter solutions were prepared in methanol at 660, 264, 106, 42, 17, 6.8, 2.7, 1.1 and 0.43 μM. NADPH cofactor was prepared with Glucose-6-phosphate (7.8 mg), Glucose-6-phosphate dehydrogenase (6 units), NADP (1.7 mg) per 1 mL in NaHCO3 2%. Substrate Preparation was as Follows: • 7-Methoxy-4-triFluoromethyl Coumarin-3-Acetic acid ethyl ester (FCA): 12.5 mM in acetonitrile • EthoxyResorufin (ER): 0.05 mM in acetonitrile • 4-MethylaminoMethyl-7-Methoxy Coumarin (MMC): 2.5 mM in methanol • 3-Butyryl-7Methoxy Coumarin (BMC): 2.5 mM in DMSO • 7-BenzyloxyQuinoline (7BQ): 2.5 mM in acetonitrile • DiEthoxyFluorescein (DEF): 0.1 mM in acetonitrile Bactosomes (Cypex source) at the concentration of 10 mg of protein per mL were diluted in phosphate buffer 50 mM pH7.4: • 0.33 mL of bactosomes CYP2C9 with 23.8 mL of buffer and 0.11 mL of FCA • 0.33 mL of bactosomes CYP1A2 with 23.6 mL of buffer and 0.275 mL of ER • 0.33 mL of bactosomes CYP2D6 with 23.8 mL of buffer and 0.11 mL of MMC • 0.33 mL of bactosomes CYP2C19 with 23.8 mL of buffer and 0.11 mL of BMC • 0.33 mL of bactosomes CYP3[…] with 23.6 mL of buffer and 0.275 mL of 7BQ • 0.33 mL of bactosomes CYP3[…] with 23.6 mL of buffer and 0.275 mL of DEF Pre-Incubation consisted in mixing 5 μL of compound solution with 220 μL diluted bactosomes and warming it at 37° C. for 10 min. Incubation was started with the addition of 25 μL of NADPH. Then fluorescence of substrate metabolite was read in a SAFIRE instrument (from Tecan) for 5 min: • FCA (2C9): Excitation at 410 nm and Emission at 510 nm • ER (1A2): Excitation at 530 nm and Emission at 590 nm • MMC (2D6): Excitation at 410 nm and Emission at 485 nm • BMC (2C19): Excitation at 410 nm and Emission at 465 nm • 7BQ (3A4H): Excitation at 410 nm and Emission at 530 nm • DEF (3A4L): Excitation at 485 nm and Emission at 530 nm Plotting of inhibition of substrate production against compound concentration allowed the determination of IC50 values.

[2] = Solubility in aqueous media; type: physicochemical; settings: thermodynamic from solid, 4 hour timepoint, read-out: Solubility (mg/mL) at 4 hour timepoint
Procedure: A known quantity of the compound of Formula (I) was weighed into a suitable vessel (e.g. a screw capped clear glass vial) and a known volume of the required media added (e.g. Simulated Gastric Fluid pH 1.6 [SGF], Simulated Fed State Intestinal Fluid pH 6.5 [FeSSIF], Simulated Fasted State Intestinal Fluid pH 6.5 [FaSSIF], Water [Purified Water], or Britton-Robinson buffer). The compound was wetted with the media by vortex mixing for 30 seconds to 1 minute. The sample was then visually observed to ensure that undissolved solid remained present. The sample was transferred to a gentle mixer (such as a roller mixer) and allowed to agitate until the desired time point was reached. At appropriate times the sample was reassessed visually. If all the solid had dissolved the solubility was recorded as >x mg/mL where x is the known weight used divided by the volume added. If undissolved solid remained a portion of the sample was taken and centrifuged to remove the solid leaving a clear supernatant. The supernatant was diluted volumetrically with a suitable diluent to provide an analytical sample of suitable concentration for analysis. This diluted sample was then analysed by a suitable method such as HPLC against a standard(s) of known concentration. The solubility of the compound can then be calculated using a knowledge of the concentration of the standard, the relative response (e.g. peak areas) of the standard and the analytical sample described, and the dilution of the analytical sample.

CYP1A2 = molecular target: T4, CYP1A2 (Homo sapiens, UniProt P05177); assay: Cytochrome p450 inhibition, bactosomes, fluorogenic substrate ER; type: in vitro ADME
T4 construct: purchased Cypex; host or cells: bactosomes (bacterial membranes)
T4 sequence (P05177 1-516): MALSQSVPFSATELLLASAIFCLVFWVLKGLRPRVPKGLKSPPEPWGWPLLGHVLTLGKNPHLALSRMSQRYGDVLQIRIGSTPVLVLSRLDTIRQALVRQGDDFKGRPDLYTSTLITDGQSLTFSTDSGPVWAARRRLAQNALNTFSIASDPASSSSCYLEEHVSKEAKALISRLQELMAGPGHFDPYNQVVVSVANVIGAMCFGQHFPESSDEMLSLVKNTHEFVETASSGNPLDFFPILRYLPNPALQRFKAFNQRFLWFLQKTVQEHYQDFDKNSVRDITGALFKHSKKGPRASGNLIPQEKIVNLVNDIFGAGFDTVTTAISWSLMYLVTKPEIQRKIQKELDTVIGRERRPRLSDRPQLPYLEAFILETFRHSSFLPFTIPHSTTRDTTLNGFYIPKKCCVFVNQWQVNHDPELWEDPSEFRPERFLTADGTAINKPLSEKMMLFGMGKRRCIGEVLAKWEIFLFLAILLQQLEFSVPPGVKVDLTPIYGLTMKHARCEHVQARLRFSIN
Procedure: (§1) The assay was designed to evaluate inhibition on cytochrome P450 (CYP) 3A4, 2C9, 2C19, 1A2 and 2D6 enzymes from bactosomes source using fluorogenic substrates. Compound (compound of Formula (I) or Comparator Compound) was dissolved in methanol at 1.65 mM. Daughter solutions were prepared in methanol at 660, 264, 106, 42, 17, 6.8, 2.7, 1.1 and 0.43 μM. NADPH cofactor was prepared with Glucose-6-phosphate (7.8 mg), Glucose-6-phosphate dehydrogenase (6 units), NADP (1.7 mg) per 1 mL in NaHCO3 2%. […]

CYP2C19 = molecular target: T5, CYP2C19 (Homo sapiens, UniProt P33261); assay: Cytochrome p450 inhibition, bactosomes, fluorogenic substrate BMC; type: in vitro ADME
T5 construct: purchased Cypex; host or cells: bactosomes (bacterial membranes)
T5 sequence (P33261 whole entry): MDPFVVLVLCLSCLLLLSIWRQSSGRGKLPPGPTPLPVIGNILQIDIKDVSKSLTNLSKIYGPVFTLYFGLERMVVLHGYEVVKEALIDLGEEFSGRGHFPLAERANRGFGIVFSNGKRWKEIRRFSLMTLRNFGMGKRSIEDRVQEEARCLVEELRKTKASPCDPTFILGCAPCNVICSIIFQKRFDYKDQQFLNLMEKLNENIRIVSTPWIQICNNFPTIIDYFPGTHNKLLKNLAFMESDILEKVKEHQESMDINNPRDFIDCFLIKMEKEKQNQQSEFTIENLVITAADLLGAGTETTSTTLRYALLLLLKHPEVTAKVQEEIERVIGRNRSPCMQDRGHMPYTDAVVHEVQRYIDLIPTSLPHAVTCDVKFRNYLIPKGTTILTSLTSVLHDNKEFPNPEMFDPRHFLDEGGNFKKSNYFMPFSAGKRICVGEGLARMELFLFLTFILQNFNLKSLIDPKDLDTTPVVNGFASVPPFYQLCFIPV
Procedure: as §1

CYP2C9 = molecular target: T6, CYP2C9 (Homo sapiens, UniProt P11712); assay: Cytochrome p450 inhibition, bactosomes, fluorogenic substrate FCA; type: in vitro ADME
T6 construct: purchased Cypex; host or cells: bactosomes (bacterial membranes)
T6 sequence (P11712 whole entry): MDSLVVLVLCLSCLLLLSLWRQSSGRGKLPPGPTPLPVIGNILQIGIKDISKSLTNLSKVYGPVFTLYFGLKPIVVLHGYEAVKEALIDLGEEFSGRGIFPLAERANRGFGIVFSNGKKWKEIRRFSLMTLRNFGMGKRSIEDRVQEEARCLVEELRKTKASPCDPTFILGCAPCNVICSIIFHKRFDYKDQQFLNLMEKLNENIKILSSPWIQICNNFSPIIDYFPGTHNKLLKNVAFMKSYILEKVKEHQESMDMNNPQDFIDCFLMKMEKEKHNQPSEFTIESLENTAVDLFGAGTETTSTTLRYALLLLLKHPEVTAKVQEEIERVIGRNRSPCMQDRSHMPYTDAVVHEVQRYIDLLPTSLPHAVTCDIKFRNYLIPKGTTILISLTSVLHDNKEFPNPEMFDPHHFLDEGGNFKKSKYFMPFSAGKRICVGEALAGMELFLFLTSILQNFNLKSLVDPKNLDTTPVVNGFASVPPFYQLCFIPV
Procedure: as §1

CYP2D6 = molecular target: T7, CYP2D6 (Homo sapiens, UniProt P10635); assay: Cytochrome p450 inhibition, bactosomes, fluorogenic substrate MMC; type: in vitro ADME
T7 construct: purchased Cypex; host or cells: bactosomes (bacterial membranes)
T7 sequence (P10635 whole entry): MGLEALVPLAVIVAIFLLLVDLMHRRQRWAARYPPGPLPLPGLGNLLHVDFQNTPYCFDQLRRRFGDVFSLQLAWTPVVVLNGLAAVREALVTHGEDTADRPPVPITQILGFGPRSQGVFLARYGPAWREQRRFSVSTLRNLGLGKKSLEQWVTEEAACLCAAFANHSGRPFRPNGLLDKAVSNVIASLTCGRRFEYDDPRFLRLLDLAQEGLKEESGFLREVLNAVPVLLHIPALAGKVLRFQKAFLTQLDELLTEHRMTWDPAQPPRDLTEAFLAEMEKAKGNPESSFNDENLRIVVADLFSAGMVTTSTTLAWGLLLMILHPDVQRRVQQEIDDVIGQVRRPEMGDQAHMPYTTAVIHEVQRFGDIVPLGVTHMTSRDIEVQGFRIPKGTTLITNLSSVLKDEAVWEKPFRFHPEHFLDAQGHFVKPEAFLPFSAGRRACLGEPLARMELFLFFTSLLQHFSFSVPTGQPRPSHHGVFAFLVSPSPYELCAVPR
Procedure: as §1

[3] = Physical stability (hydrolysis) in phosphate buffer at various pHs; type: physicochemical
Procedure: The assay was designed for determining physical stability of compound in buffer at various pHs. Compound of Formula (I) was dissolved in DMSO at 1 mg/mL. Phosphate buffer (PBS) was prepared by mixing K2HPO4 50 mM and KH2PO4 50 mM solutions to obtain 4 buffers at pH 6.0, 7.0, 7.5, 8.0.
Stability studies were conducted at room temperature, and were started by the addition of 8 μL of DMSO solution to 792 μL of PBS 50 mM at pH 6.0, 7.0, 7.5 or 8.0 (1% DMSO). 75 μl of mixture was taken at 0, 1, 2, 4 and 24 h and 225 μL acetonitrile containing internal standard was added.
2 μL of samples were injected into the liquid chromatography system and eluted with a Ascentis C18 column (50×2.1 mm id, 2.7 μm) and with 0.1% formic acid in water (A) and 0.1% formic acid in acetonitrile (B), using the following elution 2 min gradient: 5 to 95% B over 1.2 min, 95% B over 0.6 min and 0.1 min for re-equilibrate column, at 0.5 mL/min at 50° C.
Samples were analysed by Mass Spectrometry with an electrospray source and in positive mode and with following mass transitions: • Compound of Formula (I): 625 to 368 • Monoester of CPHPC: 483 to 226 • CPHPC: 341 to 226

[4] = Intestinal microsomal stability; type: in vitro ADME; settings: up to 30 minutes, 37° C.
Procedure: The assay was designed for determining stability of compound in microsomal matrix. Compound (Compound of Formula (I)) was dissolved in DMSO at 1 mg/mL. Daughter solution was prepared in methanol/water (50/50) at 30.3 ng/mL. Microsomes (from Xenotech) were diluted at 0.625 mg proteins per mL in phosphate buffer 50 mM pH 7.4.
Pre-Incubation consisted of warming microsomal solution 395 μL with 100 μL NaHCO3 (2%) at 37° C. for 7 min. Incubation was started with the addition of 5 μL of daughter solution. 50 μL aliquots of mixture were taken at 0, 3, 6, 12 and 30 min and quenched with 150 μL acetonitrile containing internal standard.
After 10 min centrifugation at 4000 rpm, 2 μL of samples were injected into the liquid chromatography system and eluted on a Ascentis C18 column (50×2.1 mm id, 2.7 μm) with 0.1% formic acid in water (A) and 0.1% formic acid in acetonitrile (B), using the following 2 minute elution gradient: 5 to 95% B over 1.2 min, 95% B over 0.6 min and 0.1 min for re-equilibrate column, at 0.5 mL/min at 50° C.
Samples were analysed by Mass Spectrometry with an electrospray source, in positive mode and with following mass transitions: • Compound of Formula (I): 625 to 368 • Monoester of CPHPC: 483 to 226 • CPHPC: 341 to 226
Controls were made to calculate percentage of disappearance of parent but also appearance of suspected metabolite, i.e. monoester and diacidic form.

[5] = substrate DEF, read-out: IC50 CYP3A4 (DEF)

SMILES: O=C(O)[C@H]1CCCN1C(=O)CCCCC(=O)N1CCC[C@@H]1C(=O)O [CPHPC, (R)-1-[6-[(R)-2-carboxy-pyrrolidin-1-yl]-6-oxo-hexanoyl]pyrrolidine-2-carboxylic acid]
CSF SAP concentration after depletion by CPHPC (SAP; CSF, patients with Alzheimer's disease, from 2-30 μg/L): < 0.1 µg/L
plasma SAP after depletion by CPHPC (SAP; plasma, from the normal 20-50 mg/L): < 0.1 mg/L
oral bioavailability [1]: 3-5%
depletion of circulating SAP (in words) (circulating SAP): almost complete depletion

inhibition of CYP3A4-7BQ (in words) (CYP3A4; substrate 7BQ): significant inhibition
inhibition of CYP3A4-DEF (in words) (CYP3A4; substrate DEF): significant inhibition
SMILES: CC(OC(=O)[C@H]1CCCN1C(=O)CCCCC(=O)N1CCC[C@@H]1C(=O)OC(C)OC(=O)C(C)(C)C)OC(=O)C(C)(C)C (stereo partly drawn) [Comparator Compound, (2R,2′R)-bis(1-(pivaloyloxy)ethyl) 1,1′-adipoylbis(pyrrolidine-2-carboxylate), reference compound]

solubility at 4 h ([2]; FaSSIF (Simulated Fasted State Intestinal Fluid pH 6.5)): 1.04 mg/mL
solubility at 4 h ([2]; FeSSIF (Simulated Fed State Intestinal Fluid pH 6.5)): 0.599 mg/mL
solubility at 4 h ([2]; SGF (Simulated Gastric Fluid pH 1.6)): 0.577 mg/mL
solubility at 4 h ([2]; water (purified water), Water): 0.574 mg/mL
IC50 (CYP1A2): > 33 µM
IC50 (CYP2C19): > 33 µM
IC50 (CYP2C9): > 33 µM
IC50 (CYP2D6): > 33 µM
IC50 (CYP3A4; substrate 7BQ, read-out: IC50 CYP3A4 (7BQ)): > 33 µM
IC50 (CYP3A4; [5]): > 33 µM
compound hydrolysed after 24 h ([3]; acidic environment (pH less than 7.0), PBS, room temperature, 24 h): Less than 20%
rate of hydrolysis in human intestinal microsomes (in words) [4]: low rate of hydrolysis
SMILES: O=C(OCOC(=O)[C@H]1CCCN1C(=O)CCCCC(=O)N1CCC[C@@H]1C(=O)OCOC(=O)C1CCOCC1)C1CCOCC1 [Compound of Formula (I), (2R,2′R)-bis(((tetrahydro-2H-pyran-4-carbonyl)oxy)methyl) 1,1′-adipoylbis(pyrrolidine-2-carboxylate)]
sensitivity to hydrolysis at different pH (in words) ([3]; PBS pH6 to pH8, room temperature): less sensitive to hydrolysis for a pH below 7.5

IC50 (CYP1A2): > 33 µM
IC50 (CYP2C19): > 33 µM
IC50 (CYP2C9): > 33 µM
IC50 (CYP2D6): > 33 µM
IC50 (CYP3A4; [5]): > 33 µM
SMILES: O=C(OCOC(=O)[C@H]1CCCN1C(=O)CCCCC(=O)N1CCC[C@@H]1C(=O)O)C1CCOCC1 [mono-ester derivative, (R)-1-(6-oxo-6-((R)-2-((((tetrahydro-2H-pyran-4-carbonyl)oxy)methoxy)carbonyl)pyrrolidin-1-yl)hexanoyl)pyrrolidine-2-carboxylic acid]
